Laboratory results: paper PMC11018795, “The regulatory relationship between NAMPT and PD-L1 in cancer and identification of a dual-targeting inhibitor” (EMBO Molecular Medicine, 2024)
Several values for one entry are separate records, joined by “and”; a condition that tells them apart may be missing. Equal entries are not always repeated.

How the values were obtained:
A2780 cells [1] = assay: Clonogenic assay, A2780; format: cell-based, human; details: 9 days
Description: (§1) Cells (3 × 10^2/well) were plated in a six-well plate and the culture medium was replaced every 2 days. After culturing for 7–10 d, the cells were fixed with 4% paraformaldehyde for 15 min, stained with 0.1% crystal violet for 30 min, and imaged and counted.

A2780 cells [2] = assay: MTT assay 48 h, A2780; format: cell-based, human
Description: (§2) Cells (5 × 10^3/well) were seeded into a 96-well plate and cultured at 37 °C in a 5% CO2 incubator. […] At the final time point, 10 μl MTT solution (5 mg/ml, Sigma, Burlington, MA, USA) was added to each well and incubated for an additional 4 h at 37 °C in a 5% CO2 incubator. Then,100 μl of DMSO was added to each well and mixed thoroughly. Optical density was measured at 492 nm using a microplate reader (Molecular Devices, San Jose, CA, USA).

HCT-116 cells = assay: Clonogenic assay, HCT-116; format: cell-based, human; details: 9 days
Description: as §1

NAMPT = NAMPT (Homo sapiens, UniProt P43490); assay: Cellular thermal shift assay (CETSA), NAMPT, A2780 cells; format: binding; parameters: endogenous in cells; host or cells: A2780; details: for Relative band intensity (NAMPT): LZFPN-90 20 nM
NAMPT, sequence (P43490 whole entry): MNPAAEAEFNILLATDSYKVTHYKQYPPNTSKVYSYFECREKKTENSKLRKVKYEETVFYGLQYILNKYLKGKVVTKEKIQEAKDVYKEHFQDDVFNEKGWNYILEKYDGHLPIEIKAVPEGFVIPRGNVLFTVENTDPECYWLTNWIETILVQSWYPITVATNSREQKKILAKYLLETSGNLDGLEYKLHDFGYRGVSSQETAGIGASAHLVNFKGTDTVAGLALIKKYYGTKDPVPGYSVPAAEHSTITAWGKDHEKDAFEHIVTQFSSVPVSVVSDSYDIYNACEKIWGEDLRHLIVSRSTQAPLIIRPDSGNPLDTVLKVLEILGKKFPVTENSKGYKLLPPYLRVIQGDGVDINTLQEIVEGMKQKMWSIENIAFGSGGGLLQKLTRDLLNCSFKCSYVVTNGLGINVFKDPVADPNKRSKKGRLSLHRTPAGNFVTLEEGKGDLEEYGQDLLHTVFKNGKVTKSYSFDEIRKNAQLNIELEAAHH
Description: The cells were resuspended in 1× PBS supplemented with protease inhibitors (Roche) and then divided into strip tubes for 30 min. The tubes were centrifuged at 15,000× g at 4 °C for 15 min. After centrifugation, the supernatant was divided into DMSO and LZFPN-90 (20 nM) groups, and incubated at room temperature for 30 min. According to standard procedures (38 °C, 42 °C, 46 °C, 50 °C, 54 °C, 58 °C, 62 °C, 66 °C), each temperature group was heated for 3 min, incubated at room temperature for 3 min. Then centrifuged at 20,000× g for 25 min, the supernatant was collected, 1× loading buffer was added, the mixture was heated in a metal bath at 95 °C for 10 min, and the amount of non-denatured protein per sample was quantified by western blotting.

[3] = tested on: LLC OE PD-L1 cells co-cultured with T cells; assay: T cell-mediated tumor cell killing assay, LLC OE PD-L1; format: cell-based; details: Mus musculus, 100 nM, read-out: inhibition rate (T cell-mediated killing)
Description: To acquire activated T cells, human peripheral blood mononuclear cells (PBMC; LTS1077, Yanjin Biological) were cultured in CTSTM AIIM VTM SFM (A3021002; Gibco) with ImmunoCult Human CD3/CD28/CD2 T-cell activator (25 µL/mL; […] Technologies, Cat#10970) for 48 h according to the manufacturer’s protocol. The experiments were performed using mouse anti-CD3 antibody (1 µg/mL; Thermo Scientific, 16-0032-82) and anti-CD28 antibody(5 µg/mL; Thermo Scientific, 16-0281-82). Cancer cells were allowed to adhere to the plates overnight and then incubated for 48 h with activated T cells in the presence or absence of DX ([…]). Different proportions of cancer cells and activated T cells were utilized according to the purpose of each experiment. The T-cell proliferation assay was 1:3; the T-cell killing assay was 1:10; T cells and cell debris were removed by PBS washing, and the living cancer cells were then quantified by a spectrometer at OD (570 nm) followed by crystal violet staining. page 12: Fig 3: […] expression patterns. […] Data was obtained from the TCGA database. (B) T cell-mediated tumor cell killing assay. T cells were co-cultured with LLC Vector, […] CQ-85, or BMS202. […] stained by crystal violet. The relative added value of activated T cells is shown below. Data are presented as mean ± SEM; *P < 0.05, **P < 0.01, ***P < 0.001, compared with control. n.s., not significant. […]

[4] = tested on: A2780, HCT-116, LLC, CT-26 cells co-cultured with T cells; assay: T-cell-mediated tumor cell killing assay, A2780, HCT-116, LLC, CT-26; format: cell-based, human, mouse; details: 72 h co-culture
Description: To acquire activated T cells, human peripheral blood mononuclear cells (PBMC; LTS1077, Yanjin Biological) were cultured in CTSTM AIIM VTM SFM (A3021002; Gibco) with ImmunoCult Human CD3/CD28/CD2 T-cell activator (25 µL/mL; […] Technologies, Cat#10970) for 48 h according to the manufacturer’s protocol. The experiments were performed using mouse anti-CD3 antibody (1 µg/mL; Thermo Scientific, 16-0032-82) and anti-CD28 antibody(5 µg/mL; Thermo Scientific, 16-0281-82). […] Different proportions of cancer cells and activated T cells were utilized according to the purpose of each experiment. The T-cell proliferation assay was 1:3; the T-cell killing assay was 1:10; T cells and cell debris were removed by PBS washing, and the living cancer cells were then quantified by a spectrometer at OD (570 nm) followed by crystal violet staining.

LLC cells [5] = assay: Cell cycle analysis, LLC; format: cell-based, mouse
Excerpt: Supplement 44321_2024_51_MOESM5_ESM.zip/Fig4-D.xlsx, sheet "Sheet1" | column: G0/G1; S; G2/M

LLC cells [6] = assay: Apoptosis assay (Annexin V/PI), LLC; format: cell-based, mouse
Description: The cells are treated with the compounds. After 48–72 h, the cells were harvested and washed twice with cold PBS. The cells were then stained with Annexin V/propidium iodide (PI) (BD Biosciences) and examined using a NovoCyte Flow Cytometer (ACEA Biosciences). Data were analyzed using NovoExpress software (ACEA Biosciences).

MDA-MB-231 cells = assay: MTT assay 48 h, MDA-MB-231; format: cell-based, human
Description: as §2

CCN(CC)CCCOc1cccc(-c2cccc3c2CCN3C(=O)c2ncc(CNC(=NC#N)Nc3ccncc3)s2)c1 [LZFPN-90]
Colony formation relative to Ctrl (A2780 cells [1]; LZ90-H (2 nM)): 0.01
Colony formation relative to Ctrl (A2780 cells [1]; LZ90-L (0.5 nM), Ctrl = 1): 0.64
Colony formation relative to Ctrl (A2780 cells [1]; LZ90-M (1 nM)): 0.11
Relative inhibition (敏感性) (A2780 cells [2]): 0.85
Colony formation relative to Ctrl (HCT-116 cells; LZ90-H (2 nM)): 0.17
Colony formation relative to Ctrl (HCT-116 cells; LZ90-L (0.5 nM), Ctrl = 1): 0.6
Colony formation relative to Ctrl (HCT-116 cells; LZ90-M (1 nM)): 0.26
thermal stability of NAMPT (NAMPT; LZFPN-90 20 nM vs blank group): the stability of NAMPT and PD-L1 increased
Relative band intensity (NAMPT) (NAMPT; 38 ℃): 1.21 and 1.06
Relative band intensity (NAMPT) (NAMPT; 42 ℃): 1.16 and 1.1
Relative band intensity (NAMPT) (NAMPT; 46 ℃): 1.06 and 1.08
Relative band intensity (NAMPT) (NAMPT; 50 ℃): 1.08 and 1.02
Relative band intensity (NAMPT) (NAMPT; 54 ℃): 1.25 and 1.19
Relative band intensity (NAMPT) (NAMPT; 58 ℃): 1.21 and 1.16
Relative band intensity (NAMPT) (NAMPT; 62 ℃): 1.18 and 1.13
Relative band intensity (NAMPT) (NAMPT; 66 ℃): 0.52 and 0.48
inhibition at 0.1 µM [3]: ~60%
T-cell killing of tumor cells, comparison at the same concentration [4]: more effective than BMS202
Cell cycle G0/G1 (LLC cells [5]; LZ90 20): 32.7 and 33.42 and 33.1
Cell cycle G2/M (LLC cells [5]; LZ90 20): 8.23 and 9.12 and 10.84
Cell cycle S (LLC cells [5]; LZ90 20): 58.16 and 55.72 and 58.65
Cell cycle G0/G1 (LLC cells [5]; LZ90 40): 31.17 and 30.64 and 32.74
Cell cycle G2/M (LLC cells [5]; LZ90 40): 10.63 and 9.6 and 10.7
Cell cycle S (LLC cells [5]; LZ90 40): 59.19 and 58.63 and 56.62
Cell cycle G0/G1 (LLC cells [5]; LZ90 60): 31.65 and 30.97 and 32.77
Cell cycle G2/M (LLC cells [5]; LZ90 60): 11.3 and 9.97 and 11.14
Cell cycle S (LLC cells [5]; LZ90 60): 58.36 and 57.86 and 55.9
Apoptotic cells (sum of both Annexin-positive quadrants) (LLC cells [6]; LZ90 15 nM): 5.3 and 5.6 and 7.76
Apoptotic cells (sum of both Annexin-positive quadrants) (LLC cells [6]; LZ90 60 nM): 15.11 and 14.38 and 15.17
Apoptotic cells (sum of both Annexin-positive quadrants) (LLC cells [6]; LZ90 240 nM): 25.37 and 24.61 and 22.88
Relative inhibition (敏感性) (MDA-MB-231 cells): 0.09
